# Experimental data: PubChem BioAssay (NCI)
# Where “and” joins values, the source holds several entries; their conditions need not be identical. Identical values can stand only once.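 Five compound concentrations were applied to cells in 96-well plates for 48 hours; endpoints were derived by simple linear interpolation of the resulting dose-response curve. Abbreviation: GI50, concentration required for 50% inhibition of growth. TGI marks complete inhibition of growth.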
# Legend:
# Assay in all cases: growth of human tumour cells (NCI), 48 h
# [1] = test system: A498 renal
# [2] = test system: SNB-19 CNS
# [3] = test system: HCT-15 colon
# [4] = test system: KM12 colon
# [5] = test system: NCI/ADR-RES ovarian
# [6] = test system: PC-3 prostate
# [7] = test system: NCI-H226 lung
# [8] = test system: SNB-75 CNS
# [9] = test system: CAKI-1 renal
# [10] = test system: SK-MEL-2 melanoma
SMILES,GI50 [1],TGI [1] [µM],GI50 [2],TGI [2],GI50 [3],TGI [3],GI50 [4],TGI [4],GI50 [5],TGI [5] [µM],GI50 [6],TGI [6],GI50 [7] [µM],TGI [7] [µM],GI50 [8],TGI [8] [µM],GI50 [9] [µM],TGI [9] [µM],GI50 [10] [µM],TGI [10] [µM]
c1ccc(CNCCN(CCNCc2ccccn2)Cc2ccc3ccccc3c2)nc1,1.86 µM,3.71,2.68 µM,8.95 µM,1.16 µM,5.01 µM,2.14 µM,4.85 µM,2.4 µM,6.96,1.92 µM,6.13 µM,1.77,3.53,2.03 µM,9.98,,,,
O=[N+]([O-])c1cc([N+](=O)[O-])c(Nn2c3ccccc3c3ccccc32)c([N+](=O)[O-])c1,0.228 µM,0.624,0.376 µM,54 µM and > 100 µM,0.377 µM,11.8 µM and 3.97 µM,0.305 µM,3.77 µM and 1.7 µM,0.317 µM,> 100,0.316 µM,7.37 µM and 11.3 µM,0.357,7.5,0.204 µM,0.92,0.238,0.703,0.267,0.702
COc1cc(C2c3cc4c(cc3C(OC(=O)C[n+]3ccccc3)C3COC(=O)C23)OCO4)cc(OC)c1OC (stereo unspecified),< 0.01 µM,15.8,< 0.0265 µM,> 100 µM,< 0.0171 µM,> 100 µM,< 0.0168 µM,> 100 µM,< 0.0169 µM,> 100,< 0.0187 µM,> 100 µM,< 0.01,> 100,1.33 µM,> 100,< 0.0184,> 100,< 0.01,> 100
C#CCN(c1ccc(C(=O)N[C@@H](CCC(=O)N[C@H](CCC(=O)O)C(=O)O)C(=O)O)cc1)C1CCc2cc3nc(CO)[nH]c(=O)c3cc21 (stereo partly specified),,> 100,> 73.5 µM,> 100 µM,> 29.9 µM,> 100 µM,> 100 µM,> 100 µM,8.58 µM,> 100,> 100 µM,> 100 µM,> 100,> 100,> 100 µM,> 100,6.13,> 100,> 100,> 100
CC[C@@H](C)/C=C(C)/C=C/C(=O)c1c(O)c(-c2ccc(O)cc2)cn(O)c1=O,0.479 µM,13.1,0.575 µM,16.3 µM,0.396 µM,16.1 µM,1.99 µM,12.7 µM,0.327 µM,10.7,3.2 µM,18.8 µM,0.274,4.88,1.38 µM,15.7,0.29,1.55,0.329,16.8
CC(C)COc1nc2c(c(=O)n(C)c(=O)n2C)n1C,> 100 µM,> 100,> 100 µM,> 100 µM,> 100 µM,> 100 µM,> 100 µM,> 100 µM,> 100 µM,> 100,> 100 µM,> 100 µM,> 100,> 100,47 µM,> 100,18.2,> 100,,
COc1cc(C(=O)c2cnc(-c3cccc4[nH]ccc34)[nH]2)cc(OC)c1OC,0.049 µM and < 0.01 µM,,0.0465 µM and < 0.01 µM,> 100 µM,0.0915 µM and < 0.01 µM,> 100 µM,0.04 µM and < 0.01 µM,24 µM,0.0729 µM and < 0.01 µM,> 100,0.0457 µM and < 0.01 µM,> 100 µM,0.169,,0.0295 µM and < 0.01 µM,> 100,< 0.01,> 100,< 0.01,36.1
NS(=O)(=O)c1cc(C(=O)O)c(O)c2ccccc12,,> 100,,> 100 µM,,> 100 µM,,> 100 µM,,> 100,,> 100 µM,,> 100,,> 100,,> 100,,> 100
CCc1nc2ccc(N=Nc3c(O)ccc4ccccc34)cc2[nH]1,,50.6,,> 66 µM,,33.4 µM,,31.9 µM,,54.8,,37.5 µM,,41.1,,37.5,,40.2,,37.9
CO[C@H]1CC(O[C@@H]2/C(C)=C/C[C@@H]3C[C@@H](C[C@]4(CC[C@H](C)[C@@H](C5CCCCC5)O4)O3)OC(=O)[C@@H]3C=C(C)/C(=N/O)[C@H]4OC/C(=C\C=C\[C@@H]2C)[C@]43O)O[C@@H](C)C1O (stereo partly specified),0.802 µM,1.95,1.66 µM,9.01 µM,0.873 µM,1.95 µM,0.826 µM,1.52 µM,1.07 µM,2.9,0.704 µM,1.84 µM,0.73,1.43,0.867 µM,2.57,1.14,3.32,1.18,2.68
